# Test results published in paper PMC11578313, “Miniaturized Modular Click Chemistry‐enabled Rapid Discovery of Unique SARS‐CoV‐2 M^pro Inhibitors With Robust Potency and Drug‐like Profile” (Advanced Science, 2024).
# Like-named read-outs stand apart in the source and are kept apart here.
# What was measured:
# in vitro [1] = details: African green monkey
# SARS‐CoV‐2 M^pro = SARS‐CoV‐2 M^pro (Severe acute respiratory syndrome coronavirus 2, UniProt P0DTD1); experiment: SARS‐CoV‐2 main protease enzymatic assay (FRET inhibitor screening kit); type: biochemical; details: for inhibition at 5 µM: read-out: Inhibitionrate at @5μM
# SARS‐CoV‐2 = experiment: microbe, parasite or virus in culture; type: cell-based
# in vitro [2] = details: human
# [3] = test system: SARS‐CoV‐2 (hCoV‐19/Korea/KCDC06/2020, wild type); experiment: microbe, parasite or virus in culture; type: cell-based
# [4] = Severe acute respiratory syndrome coronavirus 2, Vero cells, with CP‐100356, read-out: EC50 ± SD, Vero cells, with P‐gp inhibitor
# [5] = Severe acute respiratory syndrome coronavirus 2, Vero cells, without CP‐100356, read-out: EC50 ± SD, Vero cells, without P‐gp inhibitor
# [6] = Severe acute respiratory syndrome coronavirus 2, Calu-3, Calu‐3 cells, with CP‐100356, read-out: EC50 ± SD, Calu‐3 cells, with P‐gp inhibitor
# [7] = Severe acute respiratory syndrome coronavirus 2, Calu-3, Calu‐3 cells, without CP‐100356, read-out: EC50 ± SD, Calu‐3 cells, without P‐gp inhibitor
# [8] = Calu‐3 cells, without CP‐100356, read-out: EC50 ± SD, Calu‐3 cells, without P‐gp inhibitor
# [9] = Severe acute respiratory syndrome coronavirus 2, Calu-3, Calu‐3 cells, racemate, enantiomers and […] measured in the same system, read-out: EC50, anti‐SARS‐CoV‐2 activity in Calu‐3 cells (Figure 3B)
Structure (SMILES),CC50 at 2 day (in vitro [1]) [nM],"inhibition of M^pro enzymatic activity, first round of screening (SARS‐CoV‐2 M^pro) [%]",inhibition at 5 µM (SARS‐CoV‐2 M^pro) [%],EC50 (SARS‐CoV‐2; [4]) [nM],EC50 (SARS‐CoV‐2; [5]) [nM],"EC50 [3, 6] [nM]","EC50 [3, 7] [nM]",IC50 (SARS‐CoV‐2 M^pro) [nM],"CC50 at 2 day (in vitro [2]; CC50, Calu‐3 cells, MTT assay) [nM]",also measured
O=C(c1cccnc1)N1CCN(C(c2cccc(F)c2)c2cn(CCc3ccsc3)nn2)CC1 (stereo not shown) [Compound C4N17],> 100000,86,72.3,2460 ± 314,2740 ± 110,880 ± 109,1850 ± 139,–,–,"IC50 (SARS‐CoV‐2 M^pro; purified compounds, FRET assay): 1870 ± 13 nM; CC50 at 2 day (in vitro [2]): > 100000 nM"
Cc1cncc(C(=O)N2C[C@H]3CC[C@@H](C2)N3C(c2cccc(F)c2)c2cn(CC(N)=O)nn2)c1 (stereo partly shown) [Compound C5N58],> 100000,99,100,1390 ± 171,> 100000,337,4940 ± 687,151 ± 6,> 100000,"EC50 ([3]; Calu‐3 cells, with CP‐100356, read-out: EC50 ± SD, Calu‐3 cells, with P‐gp inhibitor): 338 ± 56 nM"
Cc1cncc(C(=O)N2C[C@H]3CC[C@@H](C2)N3C(c2cccc(F)c2)c2cn(CS(=O)(=O)c3ccccc3)nn2)c1 (stereo partly shown) [Compound C5N42],> 100000,101,96.2,3050 ± 206,3680 ± 952,133 ± 19,1770 ± 55,196 ± 9,> 100000,–
COC(=O)CCCn1cc(C(c2cccc(F)c2)N2[C@@H]3CC[C@H]2CN(C(=O)c2cncc(C)c2)C3)nn1 (stereo partly shown) [Compound C5N39],> 100000,96,87.6,1600 ± 249,1870 ± 270,253 ± 26,< 1000,253 ± 10,> 100000,"EC50 [3, 8]: 899 ± 312 nM"
Cc1cncc(C(=O)N2C[C@H]3CC[C@@H](C2)N3C(c2cccc(F)c2)c2cn(CCc3ccccc3)nn2)c1 (stereo partly shown) [Compound C5N16],> 100000,99,93,1890 ± 524,2000 ± 21,80 ± 2,–,283 ± 18,> 100000,–
Cc1cncc(C(=O)N2C[C@H]3CC[C@@H](C2)N3[C@@H](c2cccc(F)c2)c2cn(CCc3ccsc3)nn2)c1 [Compound C5N17A],–,–,53.2,–,–,–,–,3180,–,"CC50 at 2 day (in vitro [2]; CC50, column 9, after the Calu-3 EC50 columns): > 100000 nM; EC50 [3, 9]: 5950 nM"
Cc1cncc(C(=O)N2C[C@H]3CC[C@@H](C2)N3C(c2cccc(F)c2)c2cn(CCc3ccsc3)nn2)c1 (stereo partly shown) [Compound C5N17],> 100000,101,98.7,363 ± 29,1570 ± 131,28 ± 2,166 ± 11,177 ± 16,> 100000,"CC50 at 2 day (in vitro [2]; CC50 (Table 3), Calu‐3 cells): > 100000 nM; EC50 [3, 9]: 200 ± 27 nM"
CNC(=O)Cn1cc(C(c2cccc(F)c2)N2[C@@H]3CC[C@H]2CN(C(=O)c2cncc(C)c2)C3)nn1 (stereo partly shown) [Compound C5N57],> 100000,96,85.1,> 10000,> 100000,2330 ± 66,4040 ± 986,580 ± 5,> 100000,–
Cc1cncc(C(=O)N2C[C@H]3CC[C@@H](C2)N3C(c2cccc(F)c2)c2cn(Cc3cccc(F)c3)nn2)c1 (stereo partly shown) [Compound C5N64],> 100000,93,79.9,2860 ± 131,4200 ± 738,479 ± 26,2940 ± 124,1230 ± 100,> 100000,–
Cc1cncc(C(=O)N2C[C@H]3CC[C@@H](C2)N3C(c2cccc(F)c2)c2cn(Cc3ccc([N+](=O)[O-])cc3)nn2)c1 (stereo partly shown) [Compound C5N6],> 100000,88,68.8,1740 ± 238,1830 ± 30,1050 ± 14,< 1000,2500 ± 13,> 100000,"EC50 [3, 8]: 767 ± 156 nM"
O=C(c1cccnc1)N1C[C@H]2CC[C@@H](C1)N2C(c1cccc(F)c1)c1cn(CCc2ccsc2)nn1 (stereo partly shown) [Compound C6N17],–,90,91.7,–,–,–,–,300 ± 12,–,–
"Cn1cnc(Cn2c(=O)[nH]/c(=N\c3cc4cn(C)nc4cc3Cl)n(Cc3cc(F)c(F)cc3F)c2=O)n1 [Ensitrelvir, reference compound]",> 100000,–,–,–,–,–,–,–,> 100000,"EC50 (SARS‐CoV‐2; Severe acute respiratory syndrome coronavirus 2, Vero, read-out: EC50 ± SD, Vero cells, with P‐gp inhibitor): < 46 nM; EC50 (SARS‐CoV‐2; Severe acute respiratory syndrome coronavirus 2, Vero, read-out: EC50 ± SD, Vero cells, without P‐gp inhibitor): 165 ± 15 nM; EC50 ([3]; Severe acute respiratory syndrome coronavirus 2, Calu-3, read-out: EC50 ± SD, Calu‐3 cells, with P‐gp inhibitor): < 46 nM; EC50 ([3]; Severe acute respiratory syndrome coronavirus 2, Calu-3, read-out: EC50 ± SD, Calu‐3 cells, without P‐gp inhibitor): 110 nM; EC50 ([3]; read-out: EC50 ± SD, Calu‐3 cells, without P‐gp inhibitor): 112 ± 11 nM"
O=C(c1cccnc1)N1CCN(C(c2cccc(F)c2)c2cn(CCN3C(=O)c4ccccc4C3=O)nn2)CC1 (stereo not shown) [Compound C4N21],69800 ± 1050,82,80.2,> 10000,> 69800,4020 ± 566,74400 ± 36300,–,–,"IC50 (SARS‐CoV‐2 M^pro; purified compounds, FRET assay): 1300 ± 17 nM; CC50 at 2 day (in vitro [2]): > 100000 nM"
Cc1cncc(C(=O)N2C[C@H]3CC[C@@H](C2)N3C(c2cccc(F)c2)c2cn(C[S+]([O-])c3ccccc3)nn2)c1 (stereo partly shown) [Compound C5N41],> 100000,100,92.3,2270 ± 89,3670 ± 513,97 ± 5,1780 ± 1,243 ± 11,> 100000,–
Cc1cncc(C(=O)N2C[C@H]3CC[C@@H](C2)N3C(c2cccc(F)c2)c2cn(Cc3cccc([N+](=O)[O-])c3)nn2)c1 (stereo partly shown) [Compound C5N5],> 100000,93,79.2,1850 ± 526,1790 ± 21,2560 ± 86,2860 ± 395,1230 ± 1,> 100000,–
O=C(c1cccnc1)N1C[C@H]2CC[C@@H](C1)N2C(c1cccc(F)c1)c1cn(CCN2C(=O)c3ccccc3C2=O)nn1 (stereo partly shown) [Compound C6N21],–,89,95.1,–,–,–,–,200 ± 16,–,–
Cc1cncc(C(=O)N2C[C@H]3CC[C@@H](C2)N3C(c2cccc(F)c2)c2cn(CCN3C(=O)c4ccccc4C3=O)nn2)c1 (stereo partly shown) [Compound C5N21],> 100000,100,99.5,1380 ± 119,16200 ± 410,259 ± 43,< 1000,150 ± 4,> 100000,"EC50 [3, 8]: 591 ± 11 nM"
Cc1cncc(C(=O)N2C[C@H]3CC[C@@H](C2)N3C(c2cccc(F)c2)c2cn(Cc3ccc(S(C)(=O)=O)cc3)nn2)c1 (stereo partly shown) [Compound C5N50],> 100000,90,69,6570 ± 430,36100 ± 1380,2900 ± 263,17000 ± 778,2400 ± 100,> 100000,–
